Reference: the NIST ThermoML archive (doi:10.1021/je800964k)

Conditions: Liquid, Hot wire method

COC [dimethyl ether]
Conditions | thermal conductivity [W/m/K]
234.04 K, 5100 kPa | 0.1561
234.2 K, 600 kPa | 0.1534
234.29 K, 600 kPa | 0.153
234.33 K, 10000 kPa | 0.16
234.43 K, 29800 kPa | 0.1704
234.44 K, 30000 kPa | 0.1709
234.58 K, 600 kPa | 0.1538
234.66 K, 5300 kPa | 0.1568
234.7 K, 20200 kPa | 0.1655
234.71 K, 10400 kPa | 0.1605
234.72 K, 5300 kPa | 0.1562
234.79 K, 30100 kPa | 0.1703
235 K, 20100 kPa | 0.1654
235.27 K, 20200 kPa | 0.1655
235.32 K, 10700 kPa | 0.1598
253.99 K, 10200 kPa | 0.1528
254.02 K, 600 kPa | 0.1422
254.11 K, 20400 kPa | 0.1582
254.12 K, 30200 kPa | 0.1633
254.16 K, 600 kPa | 0.1427
254.2 K, 20100 kPa | 0.1579
254.22 K, 10400 kPa | 0.1529
254.34 K, 30300 kPa | 0.1643
254.37 K, 20100 kPa | 0.1583
254.42 K, 600 kPa | 0.1427
254.42 K, 5100 kPa | 0.1467
254.81 K, 10100 kPa | 0.1522
254.88 K, 5100 kPa | 0.1466
255.08 K, 5000 kPa | 0.1471
257.35 K, 29900 kPa | 0.164
273.93 K, 5000 kPa | 0.1396
274.08 K, 5100 kPa | 0.1396
274.48 K, 5000 kPa | 0.1404
274.56 K, 29800 kPa | 0.1585
274.57 K, 30400 kPa | 0.1579
274.6 K, 20000 kPa | 0.1523
274.9 K, 10500 kPa | 0.1456
274.9 K, 20300 kPa | 0.1522
275.12 K, 20300 kPa | 0.1523
275.22 K, 10200 kPa | 0.1452
275.3 K, 30600 kPa | 0.1582
275.31 K, 700 kPa | 0.1342
275.74 K, 700 kPa | 0.1343
276.02 K, 10500 kPa | 0.1459
276.44 K, 700 kPa | 0.1347
293.79 K, 5100 kPa | 0.1305
293.8 K, 800 kPa | 0.1249
294.15 K, 800 kPa | 0.1252
294.16 K, 10000 kPa | 0.1362
294.22 K, 10200 kPa | 0.1364
294.3 K, 29800 kPa | 0.1495
294.45 K, 800 kPa | 0.1248
294.45 K, 4900 kPa | 0.1305
294.59 K, 29900 kPa | 0.1486
294.68 K, 20600 kPa | 0.1417
294.84 K, 5200 kPa | 0.1307
295.13 K, 20300 kPa | 0.1417
295.22 K, 10000 kPa | 0.1356
296.32 K, 20200 kPa | 0.1415
314.01 K, 5100 kPa | 0.1191
314.06 K, 1000 kPa | 0.1143
314.11 K, 5200 kPa | 0.1189
314.39 K, 1000 kPa | 0.1145
314.39 K, 5100 kPa | 0.1195
314.43 K, 10200 kPa | 0.1242
314.6 K, 30100 kPa | 0.1385
314.66 K, 1000 kPa | 0.1137
314.81 K, 10200 kPa | 0.1241
314.88 K, 30000 kPa | 0.1382
315.01 K, 20400 kPa | 0.1313
315.06 K, 10100 kPa | 0.1242
315.07 K, 20100 kPa | 0.1318
315.37 K, 30400 kPa | 0.1384
315.55 K, 20000 kPa | 0.1318
333.73 K, 1500 kPa | 0.1079
333.92 K, 5200 kPa | 0.1113
334.03 K, 1500 kPa | 0.1075
334.09 K, 30000 kPa | 0.1283
334.31 K, 20200 kPa | 0.1229
334.38 K, 30100 kPa | 0.1287
334.47 K, 1500 kPa | 0.1078
334.55 K, 5100 kPa | 0.1108
334.7 K, 10200 kPa | 0.1156
334.79 K, 20200 kPa | 0.1224
334.85 K, 5200 kPa | 0.1116
334.9 K, 30200 kPa | 0.1288
334.91 K, 10200 kPa | 0.1154
335.09 K, 30400 kPa | 0.1294
335.29 K, 20100 kPa | 0.1228
335.37 K, 10100 kPa | 0.1151
335.72 K, 20000 kPa | 0.1223
335.76 K, 10300 kPa | 0.1146
353.73 K, 10300 kPa | 0.1059
353.93 K, 30500 kPa | 0.1206
353.97 K, 30100 kPa | 0.1208
354.06 K, 10200 kPa | 0.1053
354.1 K, 20400 kPa | 0.1145
354.15 K, 5800 kPa | 0.0998
354.21 K, 2300 kPa | 0.0973
354.29 K, 5300 kPa | 0.1005
354.45 K, 2300 kPa | 0.097
354.59 K, 30100 kPa | 0.1208
354.86 K, 2300 kPa | 0.0971
354.97 K, 5200 kPa | 0.1
355.08 K, 20000 kPa | 0.1141
355.18 K, 2300 kPa | 0.0971
355.36 K, 20100 kPa | 0.1142
355.46 K, 5200 kPa | 0.1012
374.25 K, 10700 kPa | 0.0988
374.25 K, 20500 kPa | 0.1071
374.3 K, 30400 kPa | 0.1129
374.62 K, 30300 kPa | 0.1133
374.81 K, 29900 kPa | 0.1135
374.85 K, 3300 kPa | 0.0871
374.85 K, 5100 kPa | 0.0908
374.91 K, 5000 kPa | 0.0908
375.13 K, 3300 kPa | 0.0869
375.27 K, 5000 kPa | 0.0911
375.38 K, 3300 kPa | 0.0867
375.68 K, 20200 kPa | 0.1065
376.02 K, 20000 kPa | 0.1065
376.38 K, 10600 kPa | 0.0976
